Here are results for one molecule from paper PMC4436063 (mBio, 2015).

This assay deals with CheS3. In words: microscale thermophoresis. Type of assay: binding, Rhodospirillum centenum. As to conditions: fluorescently labelled CheS3 (Blue-NHS, 100 nM); non-hydrolysable ATP analogue. A general note: In MST a laser heats a spot of the sample, and binding alters the fluorescence response.

For orientation: Kd means the constant that tells how readily two partners part at equilibrium. A lower Kd goes with tighter binding.

Molecules are shown by their SMILES.

Turning to `Nc1ncnc2c1ncn2[C@@H]1O[C@H](COP(=O)(O)OP(=O)(O)OP(O)(O)=S)[C@@H](O)[C@H]1O` [ATPγS], the Kd is 112 nM.
